Where two headings read alike, the source gives them in different places.

The conditions of series [1]: room temperature (not heated), pH 4.5.
Text: The following table can be used to predict the ratio of components required to achieve the indicated amiodarone concentrations at room temperature (not heated) and pH 4.5.
The conditions of series [2]: pH 4.5. The text has this: The mixture can optionally further comprise a buffer or other charged species wherein the concentration of the buffer or other charged species is less than about 0.5M.
[3] abbreviates: SBE7-β-CD 0.5% w/v (0.00231 Molar).
[4] abbreviates: SBE7-β-CD 1% w/v (0.00462 Molar).
Setting [5] is: SBE7-β-CD 3% w/v (0.0139 Molar).
Where [6] appears, read: SBE7-β-CD 5% w/v (0.0231 Molar).
The mark [7] stands for this setting: SBE7-β-CD 30% w/v (0.139 Molar).
The mark [8] stands for this setting: SBE7-β-CD 50% w/v (0.231 Molar).
The mark [9] stands for this setting: SBE7-β-CD 80% w/v (0.370 Molar), by extrapolation of phase solubility data.

On to `CCCCc1oc2ccccc2c1C(=O)c1cc(I)c(OCCN(CC)CC)c(I)c1.Cl` [Amiodarone HCl, (2-butyl-3-benzofuranyl)[4-[2-(diethylamino)ethoxy]-3,5-diiodophenyl]methanone hydrochloride], for which the “Amiodarone (Ami)” value in series [1] (setting [3]) amounted to 0.482 mg/mL; in series [1] (setting [4]), 3.0 mg/mL; in series [1] (setting [5]) it was 20.6 mg/mL; in series [1] (setting [6]) it was 28.8 mg/mL; in series [1] (setting [7]) it was 53.8 mg/mL; in series [1] (setting [8]) it was 72.2 mg/mL. Besides, the “Amiodarone (Ami)” value in series [1] (setting [9]) was 100.8 mg/mL. In addition, the “Amiodarone (Ami) Molar” value was 0.000708 Molar in series [1] (setting [3]); 0.0045 Molar in series [1] (setting [4]); 0.03019 Molar in series [1] (setting [5]); 0.0423 Molar in series [1] (setting [6]); 0.079 Molar in series [1] (setting [7]); 0.106 Molar in series [1] (setting [8]). Moreover, the “Amiodarone (Ami) Molar” value in series [1] (setting [9]) is given as 0.148 Molar.

On to “dimethyl-beta cyclodextrin [Methyl (DS˜14)]”, for which the “times SBE7-β-CD is more effective at solubilizing amiodarone than the named cyclodextrin” value in series [2] worked out at 1.7 times.
